Measurements reported in publication PMC7413254 (Nature Communications, 2020).

Legend:
Assay type in all cases: cell-based
[1] = molecular target: T1, PfCRT^Dd2 (Plasmodium falciparum, UniProt Q9N623, A220S/I356T/K76T/M74I/N326S/N75E/Q271E/R371I); experiment: [3H]CQ uptake into Xenopus oocytes, cis-inhibition by unlabelled solute; settings: PfCRTDd2 oocytes, background [3H]CQ accumulation subtracted, normalised to oocyte type control
Outline: (§1)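 Radioactivity accumulated per oocyte, read by liquid scintillation after 10% SDS lysis, served as the uptake measure. Incubations ran 1.5 h at 27.5 °C in ND96 at pH 5.5, matching digestive-vacuole acidity.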

[2] = molecular target: T2, PfCRT^Ecu1110 (Plasmodium falciparum, UniProt Q9N623, A220S/I356L/K76T/N326D); experiment: as above; settings: for PfCRT-mediated [3H]CQ transport, cis-inhibition (% PfCRTEcu1110 control): PfCRTEcu1110 oocytes, background [3H]CQ accumulation subtracted, normalised to oocyte type control; for [3H]CQ transport (% PfCRTEcu1110 control), cis-inhibition, PfCRTEcu1110: PfCRT-mediated component (background subtracted), sheet title says normalised to PfCRTDd2 control, mean ± SEM, SEM
Outline: as §1

[3] = molecular target: PfCRT^3D7 (Plasmodium falciparum, UniProt Q8IBZ9); experiment: cell-based; settings: PfCRT3D7 oocytes, normalised to oocyte type control
Outline: (§2)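 Transport measured in Xenopus oocytes expressing the transporters, 1.5 h at 27.5 °C in ND96 pH 5.5 unless noted. For trans-stimulation, VF-6 injected in 25 nL ND96 at pH 5.0–7.0 or Na^+-free (choline) buffer; intracellular levels based on ~400 nL oocyte volume. Ten oocytes per treatment, ≥4 experiments.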

[4] = molecular target: T1, PfCRT^Dd2; experiment: cell-based; settings: for PfCRT-mediated [3H]CQ transport, trans-stimulation (% PfCRTDd2 control): PfCRTDd2 oocytes, normalised to oocyte type control; for [3H]CQ transport (% PfCRTDd2 control), trans-stimulation, PfCRTDd2: PfCRT-mediated component (background subtracted), mean ± SEM, SEM
Outline: as §2

[5] = molecular target: T2, PfCRT^Ecu1110; experiment: cell-based; settings: for PfCRT-mediated [3H]CQ transport, trans-stimulation (% PfCRTEcu1110 control): PfCRTEcu1110 oocytes, normalised to oocyte type control; for [3H]CQ transport (% PfCRTDd2 control), trans-stimulation, PfCRTEcu1110: PfCRT-mediated component (background subtracted), sheet title says normalised to PfCRTDd2 control, mean ± SEM, SEM
Outline: as §2

[6] = [test solute]i = 5 mM (intracellular)
[7] = [test solute]i = 45 mM (intracellular; 30 mM for some solutes due to solubility)
[8] = [test solute]i = 5 mM (injected)
[9] = [test solute]i = 45 mM (30 mM for some solutes due to solubility)

T2 sequence (Q9N623 whole entry A220S/I356L/K76T/N326D): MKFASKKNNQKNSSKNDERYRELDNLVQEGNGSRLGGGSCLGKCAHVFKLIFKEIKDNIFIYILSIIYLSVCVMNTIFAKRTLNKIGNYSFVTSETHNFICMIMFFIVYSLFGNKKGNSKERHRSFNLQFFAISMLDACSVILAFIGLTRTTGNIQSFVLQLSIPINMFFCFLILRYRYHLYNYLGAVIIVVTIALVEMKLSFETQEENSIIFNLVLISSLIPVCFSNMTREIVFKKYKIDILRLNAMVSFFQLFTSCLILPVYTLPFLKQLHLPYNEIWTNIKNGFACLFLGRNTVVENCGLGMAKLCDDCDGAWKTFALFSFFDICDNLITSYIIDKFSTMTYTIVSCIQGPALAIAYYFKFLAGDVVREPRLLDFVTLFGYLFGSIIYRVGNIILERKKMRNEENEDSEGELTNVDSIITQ
PfCRT^3D7, sequence (Q8IBZ9 59-398): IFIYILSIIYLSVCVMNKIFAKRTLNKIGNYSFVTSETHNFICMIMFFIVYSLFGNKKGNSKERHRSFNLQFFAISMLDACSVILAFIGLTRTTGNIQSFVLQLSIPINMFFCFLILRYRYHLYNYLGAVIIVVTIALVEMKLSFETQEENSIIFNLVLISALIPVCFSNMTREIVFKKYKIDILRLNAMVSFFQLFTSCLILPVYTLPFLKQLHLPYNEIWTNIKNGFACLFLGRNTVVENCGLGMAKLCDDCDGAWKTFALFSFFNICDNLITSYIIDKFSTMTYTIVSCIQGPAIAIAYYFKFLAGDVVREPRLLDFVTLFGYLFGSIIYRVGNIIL
T1 sequence (Q9N623 whole entry A220S/I356T/K76T/M74I/N326S/N75E/Q271E/R371I): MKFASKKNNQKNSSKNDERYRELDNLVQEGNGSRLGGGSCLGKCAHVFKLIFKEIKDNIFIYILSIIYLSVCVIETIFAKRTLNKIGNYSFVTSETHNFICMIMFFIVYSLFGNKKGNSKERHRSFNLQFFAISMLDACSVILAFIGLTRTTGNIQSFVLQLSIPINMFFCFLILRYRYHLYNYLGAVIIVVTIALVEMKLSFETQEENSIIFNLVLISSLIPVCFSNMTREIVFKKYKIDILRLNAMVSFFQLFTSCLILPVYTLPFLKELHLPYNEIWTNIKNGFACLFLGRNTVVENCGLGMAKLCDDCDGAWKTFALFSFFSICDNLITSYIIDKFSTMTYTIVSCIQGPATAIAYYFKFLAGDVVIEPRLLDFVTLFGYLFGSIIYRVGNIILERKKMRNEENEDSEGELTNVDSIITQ

| Substance | PfCRT-mediated [3H]CQ transport, cis-inhibition (% PfCRTDd2 control) ([1]; [test solute] = 0.5 mM) | PfCRT-mediated [3H]CQ transport, cis-inhibition (% PfCRTDd2 control) ([1]; [test solute] = 1 mM) | PfCRT-mediated [3H]CQ transport, cis-inhibition (% PfCRTDd2 control) ([1]; [test solute] = 2 mM) | PfCRT-mediated [3H]CQ transport, cis-inhibition (% PfCRTEcu1110 control) ([2]; [test solute] = 0.5 mM) | PfCRT-mediated [3H]CQ transport, cis-inhibition (% PfCRTEcu1110 control) ([2]; [test solute] = 1 mM) | PfCRT-mediated [3H]CQ transport, cis-inhibition (% PfCRTEcu1110 control) ([2]; [test solute] = 2 mM) | [3H]CQ transport (% PfCRTEcu1110 control), cis-inhibition, PfCRTEcu1110 ([2]; [test solute] = 2 mM) [% PfCRTEcu1110 control] | PfCRT-mediated [3H]CQ transport, trans-stimulation (% PfCRT3D7 control) [3, 6] [% PfCRT3D7 control] | PfCRT-mediated [3H]CQ transport, trans-stimulation (% PfCRT3D7 control) [3, 7] [% PfCRT3D7 control] | PfCRT-mediated [3H]CQ transport, trans-stimulation (% PfCRTDd2 control) [4, 6] [% PfCRTDd2 control] | PfCRT-mediated [3H]CQ transport, trans-stimulation (% PfCRTDd2 control) [4, 7] [% PfCRTDd2 control] | [3H]CQ transport (% PfCRTDd2 control), trans-stimulation, PfCRTDd2 [4, 8] [% PfCRTDd2 control] | [3H]CQ transport (% PfCRTDd2 control), trans-stimulation, PfCRTDd2 [4, 9] [% PfCRTDd2 control] | PfCRT-mediated [3H]CQ transport, trans-stimulation (% PfCRTEcu1110 control) [5, 6] [% PfCRTEcu1110 control] | PfCRT-mediated [3H]CQ transport, trans-stimulation (% PfCRTEcu1110 control) [5, 7] [% PfCRTEcu1110 control] | [3H]CQ transport (% PfCRTDd2 control), trans-stimulation, PfCRTEcu1110 [5, 8] [% PfCRTEcu1110 control] | [3H]CQ transport (% PfCRTDd2 control), trans-stimulation, PfCRTEcu1110 [5, 9] [% PfCRTEcu1110 control] | [3H]CQ transport (% PfCRTEcu1110 control), cis-inhibition, PfCRTEcu1110 ([2]; [test solute] = 0.5 mM) [% PfCRTEcu1110 control] |
| --- | --- | --- | --- | --- | --- | --- | --- | --- | --- | --- | --- | --- | --- | --- | --- | --- | --- | --- |
| HVDDMP [HP-6] | 22 ± 2.9 | 16 ± 1.2 | 4.1 ± 0.1 | 40 ± 1.0 | 31 ± 1.6 | 21 ± 1.6 | 7.0 ± 0.02 | 142 ± 3.3 | 190 ± 4.3 | 103 ± 1.1 | 112 ± 1.1 | 103 ± 1.1 | 112 ± 1.1 | 122 ± 4.2 | 139 ± 3.4 | 36 ± 1.3 | 42 ± 1.3 |  |
| HVDDMPN [HN-7] | 37 ± 1.7 | 20 ± 0.5 | 9.2 ± 1.1 | 36 ± 1.6 | 31 ± 3.5 | 21 ± 1.3 | 7.0 ± 0.05 | 142 ± 4.5 | 187 ± 4.5 | 100 ± 3.2 | 98 ± 3.5 | 100 ± 3.2 | 98 ± 3.5 | 132 ± 4.3 | 140 ± 4.2 | 40 ± 2.5 | 42 ± 2.4 | 11 ± 0.6 |
| HVDDMPNA [HA-8] | 48 ± 3.1 | 27 ± 0.4 | 20 ± 1.3 | 50 ± 2.1 | 40 ± 2.5 | 27 ± 1.4 |  | 99 ± 3.8 | 97 ± 4.1 | 96 ± 3.1 | 96 ± 2.1 |  |  | 95 ± 2.2 | 99 ± 3.8 |  |  |  |
